The values below come from patent US20250179047A1, “5-[7-(3,4-DIHYDRO-1H-ISOQUINOLINE-2-CARBONYL)-1,2,3,4 TETRAHYDROISOQUINOLIN-6-YL]-1H-PYRROLE-3-CARBOXAMIDE DERIVATIVES, PHARMACEUTICAL COMPOSITIONS CONTAINING THEM AND THEIR USES AS PRO-APOPTOTIC AGENTS” (LES LABORATOIRES SERVIER, priority 2022, published 2025).

One assay concerns the target BCL2 WT (Homo sapiens (Human), UniProt P10415). The assay is described as follows: TR-FRET competitive binding assay, BCL2 WT. To be noted: Ki determined from IC50, read-out: TR_FRET EKI_Bcl2 WT. The procedure, abridged:
(§1)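 Terbium-labelled N-terminal Halo-fusion BCL2 or BCLXL (E. coli), 0.5 nM, competed against fluorescein-labelled PUMA peptide (2 or 20 nM) for 2 h at 23° C in 50 mM Hepes pH 7.5, 150 mM NaCl, 5% DMSO. TR-FRET 520/495 nm ratio gave IC50 by four-parameter fit; Ki derived from IC50.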
For orientation: Time-resolved FRET reads energy transfer from a long-lived donor to a nearby acceptor.

The target of assay [1] is BCL2 G101V (Homo sapiens, UniProt P10415, G101V). The assay is described as follows: TR-FRET competitive binding assay, BCL2 G101V. Particulars: BCL2 G101V; Ki determined from IC50; read-out: TR_FRET EKI_Bcl2 G101V. Summed up: as §1
Assay [2] deals with BCL2 G101V. Briefly: TR-FRET competitive binding assay, BCL2 G101V. Also noted: species or system human. Particulars: ratio Ki BCL2 G101V / Ki BCL2 WT. The procedure, abridged: as §1
A further assay deals with BCL2 D103Y (Homo sapiens, UniProt P10415, D103Y). The assay is described as follows: TR-FRET competitive binding assay, BCL2 D103Y. Particulars: Ki determined from IC50, read-out: TR_FRET EKI_Bcl2 D103Y. The procedure, abridged:
as §1

The target in the next assay is BCL2 F104I (Homo sapiens, UniProt P10415, F104I). Briefly: TR-FRET competitive binding assay, BCL2 F104I. Particulars: Ki determined from IC50, read-out: TR_FRET EKI_Bcl2 F104I. The procedure, abridged:
as §1

A further assay concerns the target BCL2 D111A (Homo sapiens, UniProt P10415, D111A). The assay is described as follows: TR-FRET competitive binding assay, BCL2 D111A. To be noted: Ki determined from IC50, read-out: TR_FRET EKI_Bcl2 D111A. Summed up:
as §1

The target in another assay is BCLXL WT (Homo sapiens (Human), UniProt Q07817). Briefly: TR-FRET competitive binding assay, BCLXL WT. To be noted: for Ki: BCLXL WT, Ki determined from IC50, read-out: TR_FRET EKI BclxL; for TR_FRET EKI BCLxL/WT selectivty ratio: ratio Ki BCLxL / Ki BCL2 WT. The procedure, abridged:
as §1

For another assay, the system named is KMS-12-PE Bcl-2 WT. The assay is described as follows: In vitro cytotoxicity CellTiter-Glo 48 h, KMS-12-PE Bcl-2 WT. Particulars: Homo sapiens, KMS-12-PE, C50 = concentration needed to reach 50% of the cellular viability. Format: cell-based. The procedure, abridged:
(§2)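 KMS-12-PE myeloma cells lentivirally transduced with Bcl-2 WT or G101V (TagRFP-sorted), exposed to compound 11-point dose-response for 48 h at 37 °C, 5% CO2. Viability read by CellTiter-Glo ATP luminescence; C50 is the concentration giving 50% cellular viability.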
Background: Cellular ATP, detected with luciferase, serves as a proxy for viable cell number.

For another assay, the system named is KMS-12-PE Bcl-2 G101V. Briefly: In vitro cytotoxicity CellTiter-Glo 48 h, KMS-12-PE Bcl-2 G101V. Format: cell-based. Particulars: for Ratio (G101V/WT): C50 KMS-12-PE Bcl-2 G101V over C50 KMS-12-PE Bcl-2 WT; for IC50: Homo sapiens, KMS-12-PE, 48 h, CellTiter-Glo, C50 = concentration needed to reach 50% of the cellular viability. The procedure, abridged: as §2

Chain of BCLXL WT (Q07817 other isoform, or with tags, fused parts or gaps): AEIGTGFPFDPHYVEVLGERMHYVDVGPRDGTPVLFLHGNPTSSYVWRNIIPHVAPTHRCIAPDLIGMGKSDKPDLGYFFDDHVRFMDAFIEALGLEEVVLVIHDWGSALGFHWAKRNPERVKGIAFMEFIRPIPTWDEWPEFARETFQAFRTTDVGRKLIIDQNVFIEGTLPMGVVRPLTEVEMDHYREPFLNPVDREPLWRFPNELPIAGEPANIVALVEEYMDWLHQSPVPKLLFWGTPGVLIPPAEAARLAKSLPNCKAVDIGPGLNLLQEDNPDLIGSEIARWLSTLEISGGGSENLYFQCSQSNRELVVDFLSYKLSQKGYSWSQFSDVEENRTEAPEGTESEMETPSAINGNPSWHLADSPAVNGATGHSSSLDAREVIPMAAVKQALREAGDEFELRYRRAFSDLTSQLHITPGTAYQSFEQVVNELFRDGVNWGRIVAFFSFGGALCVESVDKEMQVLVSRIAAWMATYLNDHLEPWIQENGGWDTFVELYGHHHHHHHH

For `Cc1c(N(C(=O)c2cc(-c3cc4c(cc3C(=O)N3Cc5ccccc5C[C@H]3CN3CCCCC3)CN(C(=O)Cc3ccc(O[C@H]5CCN(CCF)C5)cc3F)CC4)n(C)c2C)c2ccc(O)cc2)cc(C#N)n1C` [Example 89, N-(5-cyano-1,2-dimethylpyrrol-3-yl)-5-{2-[2-(2-fluoro-4-{[(3S)-1-(2-fluoroethyl)pyrrolidin-3-yl]oxy}phenyl)acetyl]-7-{[(3S)-3-(piperidin-1-ylmethyl)-3,4-dihydro-1H-isoquinolin-2-yl]carbonyl}-3,4-dihydro-1H-isoquinolin-6-yl}-N-(4-hydroxyphenyl)-1,2-dimethylpyrrole-3-carboxamide], the Ki on BCL2 WT worked out at 0.07 nM; at BCL2 G101V [1] it was 0.3 nM; on BCL2 D103Y it was 0.18 nM; at BCL2 F104I, 0.43 nM; at BCL2 D111A, 0.26 nM; on BCLXL WT, 1.9 nM. Further, the “TR_FRET EKI G101V/WT selectivty ratio” value with BCL2 G101V [2] turned out to be 4.3. The “TR_FRET EKI BCLxL/WT selectivty ratio” value on BCLXL WT is 29.2. In addition, the IC50 (usually the concentration at which inhibition is half-maximal) in the assay on KMS-12-PE Bcl-2 WT amounted to 0.0069 µM; in the assay on KMS-12-PE Bcl-2 G101V, 0.0358 µM. Besides, the “Ratio (G101V/WT)” value with KMS-12-PE Bcl-2 G101V is recorded as 5.17.
For the compound `Cc1c(N(C(=O)c2cc(-c3cc4c(cc3C(=O)N3Cc5ccccc5C[C@H]3CN3CCCCCC3)CN(C(=O)Cc3ccc(OCCN5CCOCC5)cc3F)CC4)n(C)c2C)c2ccc(O)cc2)cc(C#N)n1C` [Example 96, 5-{7-[(3S)-3-[(azepan-1-yl)methyl]-1,2,3,4-tetrahydroisoquinoline-2-carbonyl]-2-(2-{2-fluoro-4-[2-(morpholin-4-yl)ethoxy]phenyl}acetyl)-1,2,3,4-tetrahydroisoquinolin-6-yl}-N-(5-cyano-1,2-dimethyl-1H-pyrrol-3-yl)-N-(4-hydroxyphenyl)-1,2-dimethyl-1H-pyrrole-3-carboxamide], the Ki at BCL2 WT stood at 0.06 nM; at BCL2 G101V [1], 0.4 nM; on BCL2 D103Y, 0.2 nM; at BCL2 F104I it was 0.2 nM; on BCL2 D111A it was 0.2 nM; on BCLXL WT, 2.4 nM. In addition, in the assay on BCL2 G101V [2], the “TR_FRET EKI G101V/WT selectivty ratio” value is 5.6. Moreover, the “TR_FRET EKI BCLxL/WT selectivty ratio” value at BCLXL WT is 37.5. Also, the IC50 in the assay on KMS-12-PE Bcl-2 WT is 0.0056 µM; in the assay on KMS-12-PE Bcl-2 G101V, 0.0291 µM. Besides, the “Ratio (G101V/WT)” value with KMS-12-PE Bcl-2 G101V came out at 5.15.
Consider `Cc1c(N(C(=O)c2cc(-c3cc4c(cc3C(=O)N3Cc5ccccc5C[C@H]3CN3CCCCC3)CN(C(=O)Cc3c(F)cc(OCCN5CCOCC5)cc3F)CC4)n(C)c2C)c2ccc(O)cc2)cc(C#N)n1C` [Example 97, N-(5-cyano-1,2-dimethylpyrrol-3-yl)-5-[2-(2-{2,6-difluoro-4-[2-(morpholin-4-yl)ethoxy]phenyl}acetyl)-7-{[(3S)-3-(piperidin-1-ylmethyl)-3,4-dihydro-1H-isoquinolin-2-yl]carbonyl}-3,4-dihydro-1H-isoquinolin-6-yl]-N-(4-hydroxyphenyl)-1,2-dimethylpyrrole-3-carboxamide], for which the Ki amounted to 0.05 nM at BCL2 WT; 0.2 nM on BCL2 G101V [1]; 0.18 nM at BCL2 D103Y; 0.16 nM on BCL2 F104I; 0.14 nM at BCL2 D111A; 1.9 nM at BCLXL WT. Further, the “TR_FRET EKI G101V/WT selectivty ratio” value in the assay on BCL2 G101V [2] is reported as 4.3. In addition, at BCLXL WT, the “TR_FRET EKI BCLxL/WT selectivty ratio” value is reported as 41.3. For the same compound, the IC50 with KMS-12-PE Bcl-2 WT turned out to be 0.0033 µM; with KMS-12-PE Bcl-2 G101V it was 0.0158 µM. The “Ratio (G101V/WT)” value with KMS-12-PE Bcl-2 G101V came out at 4.68.
`Cc1c(N(C(=O)c2cc(-c3cc4c(cc3C(=O)N3Cc5ccccc5C[C@H]3CN3CCCCC3)CN(C(=O)Cc3ccc(OCCN5C[C@@H](C)O[C@@H](C)C5)cc3)CC4)n(C)c2C)c2ccc(O)cc2)cc(C#N)n1C` [Example 98, N-(5-cyano-1,2-dimethylpyrrol-3-yl)-5-{2-[2-(4-{2-[cis-2,6-dimethylmorpholin-4-yl]ethoxy}phenyl)acetyl]-7-{[(3S)-3-(piperidin-1-ylmethyl)-3,4-dihydro-1H-isoquinolin-2-yl]carbonyl}-3,4-dihydro-1H-isoquinolin-6-yl}-N-(4-hydroxyphenyl)-1,2-dimethylpyrrole-3-carboxamide]: the Ki amounted to 0.07 nM on BCL2 WT; 0.4 nM on BCL2 G101V [1]; 0.24 nM at BCL2 D103Y; 0.6 nM on BCL2 F104I; 0.25 nM at BCL2 D111A; 4.7 nM on BCLXL WT. Also, in the assay with BCL2 G101V [2], the “TR_FRET EKI G101V/WT selectivty ratio” value came out at 4.9. Moreover, at BCLXL WT, the “TR_FRET EKI BCLxL/WT selectivty ratio” value was 66.2. The IC50 was 0.0087 µM in the assay with KMS-12-PE Bcl-2 WT and 0.0401 µM in the assay with KMS-12-PE Bcl-2 G101V. Also, the “Ratio (G101V/WT)” value in the assay with KMS-12-PE Bcl-2 G101V worked out at 4.6.
Turning to `Cc1c(N(C(=O)c2cc(-c3cc4c(cc3C(=O)N3Cc5ccccc5C[C@H]3CN3CCCCC3)CN(C(=O)Cc3ccc(OCCN(C)C5CC5)cc3)CC4)n(C)c2C)c2ccc(O)cc2)cc(C#N)n1C` [Example 102, N-(5-cyano-1,2-dimethyl-1H-pyrrol-3-yl)-5-{2-[2-(4-{2-[cyclopropyl(methyl)amino]ethoxy}phenyl)acetyl]-7-[(3S)-3-[(piperidin-1-yl)methyl]-1,2,3,4-tetrahydroisoquinoline-2-carbonyl]-1,2,3,4-tetrahydroisoquinolin-6-yl}-N-(4-hydroxyphenyl)-1,2-dimethyl-1H-pyrrole-3-carboxamide], the Ki on BCL2 WT came to 0.06 nM; at BCL2 G101V [1] it was 0.4 nM; on BCL2 D103Y, 0.21 nM; at BCL2 F104I, 0.73 nM; at BCL2 D111A, 0.24 nM; at BCLXL WT it was 2.8 nM. In addition, the “TR_FRET EKI G101V/WT selectivty ratio” value in the assay on BCL2 G101V [2] worked out at 6.5. For the same compound, at BCLXL WT, the “TR_FRET EKI BCLxL/WT selectivty ratio” value turned out to be 49.1. The 50% inhibitory concentration (IC50) with KMS-12-PE Bcl-2 WT amounted to 0.0075 µM; with KMS-12-PE Bcl-2 G101V, 0.0424 µM. For the same compound, the “Ratio (G101V/WT)” value with KMS-12-PE Bcl-2 G101V is recorded as 6.03.
Take `Cc1c(N(C(=O)c2cc(-c3cc4c(cc3C(=O)N3Cc5ccccc5C[C@H]3CN3CCCCC3)CN(C(=O)Cc3ccc(OCCN(C)C5COC5)cc3F)CC4)n(C)c2C)c2ccc(O)cc2)cc(C#N)n1C` [Example 105, N-(5-cyano-1,2-dimethyl-1H-pyrrol-3-yl)-5-{2-[2-(2-fluoro-4-{2-[methyl(oxetan-3-yl)amino]ethoxy}phenyl)acetyl]-7-[(3S)-3-[(piperidin-1-yl)methyl]-1,2,3,4-tetrahydroisoquinoline-2-carbonyl]-1,2,3,4-tetrahydroisoquinolin-6-yl}-N-(4-hydroxyphenyl)-1,2-dimethyl-1H-pyrrole-3-carboxamide]: the Ki on BCL2 WT was found to be 0.05 nM; on BCL2 G101V [1], 0.2 nM; on BCL2 D103Y, 0.11 nM; on BCL2 F104I it was 0.22 nM; at BCL2 D111A, 0.12 nM; on BCLXL WT it was 1.6 nM. Moreover, the “TR_FRET EKI G101V/WT selectivty ratio” value with BCL2 G101V [2] was 4.3. Moreover, the “TR_FRET EKI BCLxL/WT selectivty ratio” value at BCLXL WT was determined as 32.7. Also, the IC50 came to 0.0054 µM in the assay on KMS-12-PE Bcl-2 WT and 0.0285 µM with KMS-12-PE Bcl-2 G101V. The “Ratio (G101V/WT)” value in the assay on KMS-12-PE Bcl-2 G101V is on record as 5.28.
`COc1ncc(N(C(=O)c2cc(-c3cc4c(cc3C(=O)N3Cc5ccccc5C[C@H]3C)CN(C(=O)Cc3ccc(OCCN5CCOCC5)cc3F)CC4)n(C)c2C)c2ccc(O)cc2)cc1F` [Example 111, 5-[2-(2-{2-fluoro-4-[2-(morpholin-4-yl)ethoxy]phenyl}acetyl)-7-{[(3R)-3-methyl-3,4-dihydro-1H-isoquinolin-2-yl]carbonyl}-3,4-dihydro-1H-isoquinolin-6-yl]-N-(5-fluoro-6-methoxypyridin-3-yl)-N-(4-hydroxyphenyl)-1,2-dimethylpyrrole-3-carboxamide]: the Ki on BCL2 WT stood at 0.15 nM; at BCL2 G101V [1], 0.8 nM; on BCL2 D103Y, 0.59 nM; on BCL2 F104I it was 0.79 nM; at BCL2 D111A, 0.4 nM; on BCLXL WT it was 7.2 nM. The “TR_FRET EKI G101V/WT selectivty ratio” value in the assay with BCL2 G101V [2] is recorded as 5.2. Moreover, on BCLXL WT, the “TR_FRET EKI BCLxL/WT selectivty ratio” value is reported as 48.0. Moreover, the values for the IC50 with KMS-12-PE Bcl-2 WT and in the assay on KMS-12-PE Bcl-2 G101V were 0.0048 µM and 0.0392 µM, respectively. Further, the “Ratio (G101V/WT)” value with KMS-12-PE Bcl-2 G101V is listed as 8.18.
